Source: patent US9320741B2, “Compositions and methods for treating neoplasia, inflammatory disease and other disorders” (Dana-Farber Cancer Institute, Inc., priority 2010, dated 2016)
Read-outs that look alike come from different tables or passages of the source.

How the values were obtained:
BRD4(2) = BRD4(2) (Homo sapiens (Human), UniProt O60885); assay: Alpha-assay acetyl-histone binding, BRD4 site 2; conditions: 12-point dose response curve; for IC50: read-out: Bio-assay IC50 BRD4(2)
BRD4(1) = BRD4(1) (Homo sapiens (Human), UniProt O60885); assay: Alpha-assay acetyl-histone binding, BRD4 site 1; conditions: 12-point dose response curve; for IC50: read-out: Bio-assay IC50 BRD4(1)
Procedure: The binding activity of lead compounds with the BRD4 site 1 was determined by Alpha-assay with a 12-point dose response curve (FIG. 56A).
(§1) Assays were performed as described previously^8 with minor modifications from the manufacturer's protocol (PerkinElmer, USA). All reagents were diluted in 50 mM HEPES, 100 mM NaCl, 0.1% BSA, pH 7.4 supplemented with 0.05% CHAPS and allowed to equilibrate to room temperature prior to addition to plates. […] Plates were sealed and incubated for a further 30 minutes, before the addition of 4 μl of streptavidin-coated donor beads (25 μg/ml) and 4 μl nickel chelate acceptor beads (25 μg/ml) under low light conditions. Plates were foil-sealed to protect from light, incubated at room temperature for 60 minutes and read on a PHERAstar FS plate reader (BMG Labtech, Germany) using an AlphaScreen 680 excitation/570 emission filter set. IC50 values were calculated in Prism 5 (GraphPad Software, USA) after normalization against corresponding DMSO controls and are given as the final concentration of compound in the 20 μl reaction volume.

[1] = Unspecified biological assay
NMC 797 xenografts = assay: NMC 797 xenograft efficacy study
Procedure: Prior to randomization and after four days of therapy, mice were evaluated by PET imaging.
To capture comparative mechanistic and pharmacodynamic data, all animals were sacrificed and tumors were explanted for histopathologic analysis.
Animals were followed daily for clinical symptoms. Tumor measurements were assessed by caliper measurements, and volume calculated using the formula Vol=0.5×L×W^2. After 2 weeks of treatment, all mice were humanely euthanized, and tumors were fixed in 10% formalin for histopathological examination. Statistical significance of tumor volumes was calculated by two-sided Students t-test. All animal studies were approved by the IACUC of the DFCI.

[2] = system: BRD4-dependent human carcinoma cells; assay: Annexin-V/propidium iodide flow cytometry, BRD4-dependent carcinoma cells; type: cell-based; conditions: 500 nM, 24 or 48 hours
Procedure: Thus, early and late apoptosis was assessed with annexin-V and propidium iodide staining by flow cytometry.
Trypsinized cells were mixed 1:1 on ice with Annexin-V/propidium iodide buffer (10 mM HEPES pH 7.4, 140 mM NaCl, 2.5 mM CaCl2) containing Annexin V-FITC (BD Pharmingen, 1:500) and propidium iodide (Invitrogen, 1:1000). Samples were immediately analyzed on a BD FACS Canto II. Visualizations and analyses of apoptotic fractions were generated using FlowJo flow cytometry analysis software (Tree Star, Inc.).

NMC 797 and Per403 cells = assay: Differentiation and proliferation immunohistochemistry, NMC cells; type: cell-based, human
Excerpt: Direct inhibition of gene products expressed from recurrent, oncogenic translocations is a validated therapeutic approach in cancer^28,29. The phenotypic consequences of chemical inhibition of BET-family bromodomains on the BRD4-dependent NUT midline carcinoma was explored. BRD4-NUT chromatin localization is mechanistically linked to the preserved tandem bromodomains of BRD4 in the fusion protein^17. A characteristic feature of NMC is the appearance of discrete nuclear speckles of the BRD4-NUT oncoprotein by NUT-directed immunohistochemistry (IHC)^30.
A striking differentiation phenotype is observed with knock-down of BRD4-NUT in NMC cell lines^17. […] Differentiation was prompt (<24 hours) and characterized by markedly augmented expression of cytokeratin, a hallmark of squamous differentiation (FIG. 3h).

cellular receptors = assay: Off-target effects on cellular receptors
TE10 and TT = assay: Differentiation immunohistochemistry, non-BRD4-dependent squamous carcinoma lines; type: cell-based, human
GFP-BRD4 = GFP-BRD4 (Homo sapiens (Human), UniProt O60885)
GFP-BRD4-NUT = GFP-BRD4-NUT (Homo sapiens (Human), UniProt O60885+Q86Y26); conditions: 500 nM, compared to vehicle control
Procedure: (§2) FRAP studies were performed on U2OS cells as previously described^3,20. In brief, U2OS cells were transfected (lipofectamine; Invitrogen) with mammalian overexpression constructs encoding GFP chimera with BRD4, NUT and BRD4-NUT. A 5 μm^2 nuclear region was bleached with high laser intensity in one cell within each field, and measured for recovery with low laser intensity and a 150 μm pinhole. Images of identical fields were acquired using a Nikon Cl Plus confocal microscope equipped with a 37° C. heated chamber and FRAP modules over 90 seconds. Average intensities of the bleached region were measured over time and using MetaMorph v7, and normalized to an independent region of interest before bleaching.

GFP-NUT = GFP-NUT (Homo sapiens (Human), UniProt Q86Y26); assay: FRAP in U2OS cells, GFP-NUT; conditions: 500 nM
GFP-NUT, sequence (Q86Y26 whole entry, looked up): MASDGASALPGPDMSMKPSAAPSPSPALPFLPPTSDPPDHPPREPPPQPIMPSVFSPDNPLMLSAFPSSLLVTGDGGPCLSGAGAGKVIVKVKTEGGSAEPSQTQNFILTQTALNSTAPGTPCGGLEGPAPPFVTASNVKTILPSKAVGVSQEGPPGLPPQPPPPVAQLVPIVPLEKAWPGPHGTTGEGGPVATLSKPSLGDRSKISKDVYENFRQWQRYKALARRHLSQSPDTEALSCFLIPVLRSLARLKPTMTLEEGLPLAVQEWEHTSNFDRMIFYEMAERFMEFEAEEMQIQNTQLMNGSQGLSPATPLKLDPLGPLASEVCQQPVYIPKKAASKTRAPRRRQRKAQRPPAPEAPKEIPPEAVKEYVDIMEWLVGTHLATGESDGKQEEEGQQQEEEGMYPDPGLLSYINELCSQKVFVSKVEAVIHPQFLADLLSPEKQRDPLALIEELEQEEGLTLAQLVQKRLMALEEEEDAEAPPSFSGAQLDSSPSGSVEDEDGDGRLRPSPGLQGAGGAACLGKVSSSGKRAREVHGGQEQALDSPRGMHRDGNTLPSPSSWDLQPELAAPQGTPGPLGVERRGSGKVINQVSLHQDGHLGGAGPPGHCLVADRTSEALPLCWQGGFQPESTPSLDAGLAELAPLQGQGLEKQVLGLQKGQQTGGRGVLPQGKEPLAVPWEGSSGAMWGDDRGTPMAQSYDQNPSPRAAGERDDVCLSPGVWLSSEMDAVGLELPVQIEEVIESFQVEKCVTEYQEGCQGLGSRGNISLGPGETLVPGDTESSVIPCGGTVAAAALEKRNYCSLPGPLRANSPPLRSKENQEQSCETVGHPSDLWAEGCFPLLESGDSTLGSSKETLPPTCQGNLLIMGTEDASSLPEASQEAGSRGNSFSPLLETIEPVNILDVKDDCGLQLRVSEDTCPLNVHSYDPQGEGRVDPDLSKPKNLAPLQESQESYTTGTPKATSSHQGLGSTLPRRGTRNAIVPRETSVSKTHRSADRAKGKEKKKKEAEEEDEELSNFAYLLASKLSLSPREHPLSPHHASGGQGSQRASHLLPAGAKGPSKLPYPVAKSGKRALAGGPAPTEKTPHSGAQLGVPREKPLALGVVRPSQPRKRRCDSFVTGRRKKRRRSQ
Procedure: as §2

BRD3-NUT cells = assay: BRD3-NUT xenograft study; type: in vivo, mice; conditions: 50 mg/kg IP 7 days/week
Excerpt: Mice were implanted subcutaneously with BRD3-NUT cells. Tumor measurement data were collected weekly. […] On day 24 post-injection, five mice from each group were euthanized and tumor samples were collected to be sent for lab analysis. Throughout the remainder of the study tumor samples were collected as mice were sacrificed. For all samples one half of the tumor was fixed in 10% formalin and the other half was flash frozen on dry ice. Treatment ended on day 32. Tumor volume and weights were collected weekly until all mice either became moribund or tumors reached 2 cm in any dimension. […] Upon cessation of therapy, tumor growth resumed. Tumor volume differences were significant at all points (p=7.65274E-09 at Day 24).

TT and TE10 = assay: Cell proliferation assay, non-NMC squamous carcinoma lines; type: cell-based, human; conditions: TT and TE10, 250 nM, 72 hours
Procedure: Data is presented as mean±s.d. (n=3). IC50 values were calculated by logistic regression.

[3] = Pharmacokinetic studies in CD1 mice; conditions: for AUC: CD1, mouse, plasma
NMC 11060 xenografts = assay: Patient-derived NMC 11060 primary xenograft study; type: in vivo, mice; conditions: 50 mg kg^−1 daily for four days
Excerpt: In parallel with these studies, a patient with widely metastatic BRD4-NUT positive NMC arising from the mediastinum was identified. With the goal of developing a more clinically-relevant disease model, short-term cultures were established using discarded clinical material obtained from pleural fluid draining from a palliative chest tube in the patient.

NMC 797 cells = assay: Flow cytometry for DNA content, NMC 797; type: cell-based, human; conditions: 250 nM, 48 h
Procedure: Data is presented as mean±s.d. (n=3). IC50 values were calculated by logistic regression. […] Data points are mean±s.d. (n=3). […] PI, propidium iodide. […] A significant response to therapy is observed by two-tailed t-test at 14 days (p=0.039). Data represent the mean±s.d. (n=7). […] Expanded fields are provided in Supplementary FIGS. 11, 12. […] Quantitative analysis of keratin induction was performed using image masking (FIG. 5J, right panel) and pixel positivity analysis (FIG. 5K). A significant response to therapy is observed by two-tailed t-test (p=0.0001). Data represent the mean±s.d. of three independent wide microscopic fields.

NMC 11060 cells = assay: Flow cytometry for DNA content, NMC 11060; type: cell-based, human; conditions: 250 nM, 48 h
Procedure: Data is presented as mean±s.d. (n=3). IC50 values were calculated by logistic regression. […] Data points are mean±s.d. (n=3).

[4] = system: Keratin-14, Keratin-10, epidermal transglutaminase (TGM1); assay: RT-PCR expression analysis of squamous tissue genes in NMC 797 cells; type: cell-based, human
797 cells = assay: Cell proliferation assay, 797 cell line; type: cell-based; conditions: Homo sapiens, read-out: Cell-assay IC50 797 cells
Procedure: Curve fit was calculated by logistical regression.
Cells were seeded into white, 384-well microtiter plates (Nunc) at 500 cells per well in a total volume of 50 μL media. […] Compounds were delivered to microtiter assay plates by robotic pin transfer (PerkinElmer JANUS equipped with a V&P Scientific 100 nL pin tool). Following a 48 h incubation at 37° C., cells were lysed and wells were assessed for total ATP content using a commercial proliferation assay (Cell TiterGlo; Promega). Replicate measurements were analyzed with respect to dose and estimates of IC50 were calculated by logistic regression (GraphPad Prism).

BET family members = assay: AlphaScreen profiling against other BET family members; type: binding, human
CBP = CBP (Homo sapiens (Human), UniProt Q92793); assay: AlphaScreen profiling against CBP; type: binding
CBP, sequence (Q92793 whole entry): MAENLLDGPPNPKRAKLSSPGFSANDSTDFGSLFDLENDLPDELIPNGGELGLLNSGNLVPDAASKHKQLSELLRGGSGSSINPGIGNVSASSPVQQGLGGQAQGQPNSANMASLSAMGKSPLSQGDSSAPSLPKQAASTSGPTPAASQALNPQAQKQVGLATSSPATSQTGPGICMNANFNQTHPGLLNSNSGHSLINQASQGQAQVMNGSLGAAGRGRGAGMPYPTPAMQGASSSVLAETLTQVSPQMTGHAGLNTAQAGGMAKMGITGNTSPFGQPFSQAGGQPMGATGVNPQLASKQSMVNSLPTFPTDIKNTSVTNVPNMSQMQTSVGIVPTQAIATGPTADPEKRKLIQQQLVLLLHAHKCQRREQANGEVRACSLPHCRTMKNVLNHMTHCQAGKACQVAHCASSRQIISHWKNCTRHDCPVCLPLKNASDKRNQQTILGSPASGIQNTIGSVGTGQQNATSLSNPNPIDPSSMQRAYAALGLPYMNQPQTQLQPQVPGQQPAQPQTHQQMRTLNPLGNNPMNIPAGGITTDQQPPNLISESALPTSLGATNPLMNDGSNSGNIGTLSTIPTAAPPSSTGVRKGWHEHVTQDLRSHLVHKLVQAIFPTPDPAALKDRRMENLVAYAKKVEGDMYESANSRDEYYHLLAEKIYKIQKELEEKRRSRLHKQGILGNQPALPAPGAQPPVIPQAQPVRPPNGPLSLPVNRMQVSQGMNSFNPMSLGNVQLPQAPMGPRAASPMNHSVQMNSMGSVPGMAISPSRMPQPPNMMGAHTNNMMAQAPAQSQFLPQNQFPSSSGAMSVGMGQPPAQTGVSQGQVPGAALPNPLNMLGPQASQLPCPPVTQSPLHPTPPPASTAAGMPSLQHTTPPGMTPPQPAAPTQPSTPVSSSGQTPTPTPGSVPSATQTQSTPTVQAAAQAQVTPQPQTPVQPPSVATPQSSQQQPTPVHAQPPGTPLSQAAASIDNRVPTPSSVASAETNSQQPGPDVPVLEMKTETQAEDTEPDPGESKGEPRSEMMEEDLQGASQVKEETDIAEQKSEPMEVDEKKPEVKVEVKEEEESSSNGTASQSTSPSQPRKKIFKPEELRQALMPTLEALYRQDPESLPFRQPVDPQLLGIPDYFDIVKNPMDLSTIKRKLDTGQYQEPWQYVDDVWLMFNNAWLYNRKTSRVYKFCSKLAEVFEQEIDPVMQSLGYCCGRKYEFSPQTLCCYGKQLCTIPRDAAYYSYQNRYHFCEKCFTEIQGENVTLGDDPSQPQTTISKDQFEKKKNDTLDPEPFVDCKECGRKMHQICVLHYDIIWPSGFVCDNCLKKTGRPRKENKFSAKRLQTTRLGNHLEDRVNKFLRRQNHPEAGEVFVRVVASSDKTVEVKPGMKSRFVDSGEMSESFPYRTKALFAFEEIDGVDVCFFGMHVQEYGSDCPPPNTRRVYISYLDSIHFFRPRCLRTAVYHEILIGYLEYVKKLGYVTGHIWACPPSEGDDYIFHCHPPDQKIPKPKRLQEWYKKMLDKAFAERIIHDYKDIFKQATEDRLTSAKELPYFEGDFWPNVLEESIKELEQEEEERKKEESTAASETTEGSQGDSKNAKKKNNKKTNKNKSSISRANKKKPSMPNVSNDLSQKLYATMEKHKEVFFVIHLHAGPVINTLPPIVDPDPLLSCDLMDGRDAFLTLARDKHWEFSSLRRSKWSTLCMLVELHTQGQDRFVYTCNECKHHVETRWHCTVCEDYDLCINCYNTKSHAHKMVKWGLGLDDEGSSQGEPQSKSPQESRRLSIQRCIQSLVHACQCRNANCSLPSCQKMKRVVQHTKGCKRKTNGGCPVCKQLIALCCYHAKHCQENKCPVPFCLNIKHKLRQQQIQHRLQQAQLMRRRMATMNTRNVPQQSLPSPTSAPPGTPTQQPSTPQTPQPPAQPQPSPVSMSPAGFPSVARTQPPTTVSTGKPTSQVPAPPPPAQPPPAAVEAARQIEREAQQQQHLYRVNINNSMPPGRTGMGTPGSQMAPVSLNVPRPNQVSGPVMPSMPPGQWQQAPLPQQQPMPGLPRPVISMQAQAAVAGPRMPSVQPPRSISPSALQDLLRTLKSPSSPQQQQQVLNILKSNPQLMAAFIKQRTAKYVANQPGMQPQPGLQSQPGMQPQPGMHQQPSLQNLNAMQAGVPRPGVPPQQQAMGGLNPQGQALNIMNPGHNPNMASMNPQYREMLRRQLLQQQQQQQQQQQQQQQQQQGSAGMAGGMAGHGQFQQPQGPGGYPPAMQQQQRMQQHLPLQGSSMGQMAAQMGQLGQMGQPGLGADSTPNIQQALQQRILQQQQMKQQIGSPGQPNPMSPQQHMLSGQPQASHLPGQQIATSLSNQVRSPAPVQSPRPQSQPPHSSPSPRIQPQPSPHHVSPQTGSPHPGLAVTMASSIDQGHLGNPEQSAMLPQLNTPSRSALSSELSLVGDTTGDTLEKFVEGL
Procedure: as §1

## Cc1sc2c(c1C)C(c1ccc(Cl)cc1)=NC(CC(=O)NCCCN1CCN(C)CC1)c1nnc(C)n1-2 (centres unmarked) [JQ35]
BRD4(2)
  binding activity with the BRD4 site 2: excellent binding activity
BRD4(1)
  binding activity with the BRD4 site 1: excellent binding activity

## Cc1sc2c(c1C)C(c1ccc(Cl)cc1)=NC(CC(=O)NN=Cc1ccc(O)cc1)c1nnc(C)n1-2 (centres unmarked) [hydrazone (4)]
[1]
  activity in at least one biological assay: showed activity

## tert-Butyl 2-(4-(4-chlorophenyl)-2,3,9-trimethyl-6H-thieno[3,2-f][1,2,4]triazolo[4,3-a][1,4]diazepin-6-yl)acetate [JQ1]
NMC 797 xenografts; 50 mg kg^−1 daily intraperitoneal, 14 days
  tumor growth (tumor volume by caliper): statistically-significant reduction in tumor growth
NMC 797 xenografts; 50 mg kg^−1 daily intraperitoneal, four days
  FDG uptake by PET imaging: marked response on FDG uptake
NMC 797 xenografts; 50 mg kg^−1 daily, excised tumors
  tumor keratin expression, quantitative IHC: strong (3+) keratin expression
NMC 797 xenografts; 50 mg kg^−1 daily, excised tumors, IHC
  NUT nuclear speckles in sectioned tumor tissue: effacement of NUT nuclear speckles
[2]
  apoptosis (annexin-V and propidium iodide staining): induced immediate and progressive apoptosis
NMC 797 and Per403 cells; 797 NMC cell line, 500 nM, 48 hours
  nuclear NUT foci by IHC: effaced nuclear foci
NMC 797 and Per403 cells; NMC 797 and Per403 cells
  time to differentiation: < 24 h
Cellular receptors
  off-target effects on cellular receptors: few off-target effects on cellular receptors
TE10 and TT
  differentiation effects: fail to exhibit differentiation effects
GFP-BRD4; U2OS cells, 500 nM
  fluorescence recovery of GFP-BRD4: observed recovery is immediate
GFP-BRD4-NUT
  time-to-recovery of fluorescence intensity, GFP-BRD4-NUT: markedly accelerated time-to-recovery of fluorescence intensity
GFP-NUT
  redistribution of GFP-NUT: no effect was observed
BRD3-NUT cells
  body weight: mild weight loss with rapid recovery after cessation of therapy
  tumor volume: tumor regression while on therapy
TT and TE10
  effect on cell proliferation: Minimal effects observed on cell proliferation
[3]; CD1 mice, oral 10 mg kg^−1
  oral bioavailability (F): 49%

## Cc1sc2c(c1C)C(c1ccc(Cl)cc1)=NC(CC(=O)NCCN1CCOCC1)c1nnc(C)n1-2 (centres unmarked) [JQ33]
BRD4(2)
  binding activity with the BRD4 site 2: excellent binding activity
  IC50: 29.5 nM
BRD4(1)
  binding activity with the BRD4 site 1: excellent binding activity
  IC50: 85 nM

## Cc1sc2c(c1C)C(c1ccc(Cl)cc1)=N[C@@H](CC(=O)OC(C)(C)C)c1nnc(C)n1-2 (single isomer, unassigned) [(+)-JQ1]
NMC 797 and Per403 cells; BRD4-dependent NMC cells
  differentiation and growth arrest phenotypes: differentiation and growth arrest phenotypes are prompted
GFP-BRD4; 250 nM, 5 h, compared to vehicle control
  fluorescence recovery of GFP-BRD4: enhanced recovery
NMC 11060 xenografts
  FDG uptake by PET imaging: marked response on FDG uptake
  tumor keratin expression, quantitative IHC: induction of keratin expression
NMC 797 cells
  cell cycle (DNA content): induced a G1 arrest
NMC 11060 cells
  cell cycle (DNA content): induces a G1 arrest
[4]
  effect on epidermal transglutaminase (TGM1): absent effect
  induction of Keratin-10: modest induction
[3]; iv, 5 mg/kg
  AUC: 2090 ng·h/mL
[3]; po, 10 mg/kg
  AUC: 2090 ng·h/mL
[3]; CD1 mice, intravenous 5 mg kg^−1
  half-life (T1/2): approximately one

## Cc1sc2c(c1C)C(c1ccc(Cl)cc1)=N[C@@H](CC(=O)NCCN1CCN(C)CC1)c1nnc(C)n1-2 [JQ13]
797 cells; proliferation after 72 hours
  IC50: 10.9 µM
BRD4(2)
  binding activity with the BRD4 site 2: excellent binding activity
  IC50: 0.584 nM
BRD4(1)
  binding activity with the BRD4 site 1: excellent binding activity
  IC50: 2.49 nM

## Cc1sc2c(c1C)C(c1ccc(Cl)cc1)=N[C@@H](CC(=O)NCCc1cnc[nH]1)c1nnc(C)n1-2 [JQ8]
BRD4(2)
  binding activity with the BRD4 site 2: excellent binding activity
BRD4(1)
  binding activity with the BRD4 site 1: excellent binding activity

## Cc1sc2c(c1C)C(c1ccc(Cl)cc1)=NC(CC(=O)NN)c1nnc(C)n1-2 (centres unmarked) [hydrazide (3)]
[1]
  activity in at least one biological assay: showed activity

## Cc1sc2c(c1C)C(c1ccc(Cl)cc1)=N[C@@H](CC(=O)OC(C)(C)C)c1nnc(C)n1-2 [JQ1S]
BET family members
  binding and inhibition of BET family members: active
CBP
  binding and inhibition of CBP: inactive

## Cc1sc2c(c1C)C(c1ccc(Cl)cc1)=N[C@H](CC(=O)OC(C)(C)C)c1nnc(C)n1-2 [(R)-JQ1]
797 cells; 72 h
  IC50: 1.54 µM

## Cc1sc2c(c1C)C(c1ccc(Cl)cc1)=N[C@@H](CC(=O)N/N=C/c1ncc[nH]1)c1nnc(C)n1-2 [JQ6]
BRD4(2)
  binding activity with the BRD4 site 2: excellent binding activity
BRD4(1)
  binding activity with the BRD4 site 1: excellent binding activity
